The text below walks through data of patent US20150352108A1, “AMINO-PYRIMIDINE COMPOUNDS AS INHIBITORS OF TBK1 AND/OR IKK EPSILON” (Alzheimer's Institute of America, priority 2009, published 2015).

For orientation: IC50 means the concentration at which inhibition is half-maximal.

Structures are written as SMILES. Like-named read-outs stand apart in the source and are kept apart here.

One test addresses T1, IKKε (Homo sapiens, UniProt Q14164).
T1 construct: His-tag; made in house; host or cells: Sf9 insect cells
T1 sequence (Q14164 1-716): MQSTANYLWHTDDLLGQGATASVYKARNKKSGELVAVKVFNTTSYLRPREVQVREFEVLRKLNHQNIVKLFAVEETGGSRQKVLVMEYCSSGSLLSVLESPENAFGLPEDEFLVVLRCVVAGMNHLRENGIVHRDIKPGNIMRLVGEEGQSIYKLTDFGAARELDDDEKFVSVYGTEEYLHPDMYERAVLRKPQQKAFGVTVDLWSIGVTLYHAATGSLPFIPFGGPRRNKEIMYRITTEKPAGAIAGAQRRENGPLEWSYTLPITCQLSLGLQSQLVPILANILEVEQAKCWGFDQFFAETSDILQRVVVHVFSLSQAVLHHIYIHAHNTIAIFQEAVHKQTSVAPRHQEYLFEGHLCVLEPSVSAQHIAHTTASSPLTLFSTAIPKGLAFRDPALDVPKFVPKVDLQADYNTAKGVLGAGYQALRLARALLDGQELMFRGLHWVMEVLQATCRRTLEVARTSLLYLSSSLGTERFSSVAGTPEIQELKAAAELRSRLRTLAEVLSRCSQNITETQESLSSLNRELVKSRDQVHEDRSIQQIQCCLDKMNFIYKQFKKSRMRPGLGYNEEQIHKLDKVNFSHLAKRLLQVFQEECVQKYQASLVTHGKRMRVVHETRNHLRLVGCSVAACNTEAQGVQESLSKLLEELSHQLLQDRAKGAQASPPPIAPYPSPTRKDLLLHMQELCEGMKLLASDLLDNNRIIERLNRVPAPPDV
Briefly: In-vitro IKKε kinase assay ([γ33]ATP filter-plate). It is filed as biochemical. An outline of the steps:
(§1)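 His-tagged IKKε and TBK1 from Sf9 cells were assayed with myelin basic protein or casein and [γ33]ATP at 2×Km ATP (32 μM for IKKε, 60 μM for TBK1). Enzyme was 0.1 or 0.015 μg/ml for IKKε and 0.1 or 0.02 μg/ml for TBK1 (normal/sensitized). Reactions ran 30-45 min, were filter-captured, scintillation-counted, and normalized to DMSO after background subtraction.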

In test [1] the test system is IKKε-mediated phosphorylation of IRF3. Kind of test: In-situ phosphorylation of IRF3 (pIRF3 Ser396 ELISA) in HEK293T cells cotransfected with IRF3 and IKKε. It is filed as cell-based. The note with it: Homo sapiens, HEK-293T. The method in brief:
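For the IRF3 ELISA, HEK293T cells cotransfected with IRF3 and IKKε were replated at 20,000/well and treated 20 h. Phospho-Ser396 IRF3 was measured by ELISA and normalised to DMSO, with viability checked by CellTiter-Glo. For IRF7, cells transfected with IRF7 and TBK1 were treated overnight, and pSer477/Ser479 IRF7 was detected by Western blot.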
For orientation: ELISA stands for enzyme-linked immunosorbent assay.

Another test deals with T2, TBK1 (Homo sapiens, UniProt Q9UHD2).
T2 construct: His-tag; made in house; host or cells: Sf9 insect cells
T2 sequence (Q9UHD2 1-729): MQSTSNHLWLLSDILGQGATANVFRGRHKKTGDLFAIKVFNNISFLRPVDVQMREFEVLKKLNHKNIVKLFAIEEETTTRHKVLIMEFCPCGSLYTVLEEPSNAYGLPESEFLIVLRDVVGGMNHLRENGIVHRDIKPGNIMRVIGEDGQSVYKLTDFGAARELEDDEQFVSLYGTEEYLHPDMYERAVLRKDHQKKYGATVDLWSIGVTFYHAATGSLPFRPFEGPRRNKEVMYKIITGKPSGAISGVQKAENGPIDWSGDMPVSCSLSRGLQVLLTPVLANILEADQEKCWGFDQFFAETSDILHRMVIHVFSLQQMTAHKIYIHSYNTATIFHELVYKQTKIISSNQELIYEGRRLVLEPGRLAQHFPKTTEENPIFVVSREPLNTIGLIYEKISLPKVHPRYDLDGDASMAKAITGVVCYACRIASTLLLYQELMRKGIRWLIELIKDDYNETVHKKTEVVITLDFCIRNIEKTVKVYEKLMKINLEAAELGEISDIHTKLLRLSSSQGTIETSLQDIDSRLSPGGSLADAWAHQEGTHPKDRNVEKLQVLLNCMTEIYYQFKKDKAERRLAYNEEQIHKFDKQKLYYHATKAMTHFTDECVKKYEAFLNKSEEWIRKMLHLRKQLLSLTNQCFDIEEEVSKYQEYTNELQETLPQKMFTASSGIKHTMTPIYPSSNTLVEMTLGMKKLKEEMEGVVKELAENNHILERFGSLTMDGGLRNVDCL
Kind of test: In-vitro TBK1 kinase assay ([γ33]ATP filter-plate). It counts as biochemical. The method in brief: as §1

Setting [2] is: text bins, read-out: IC50 for inhibition of the kinase activity of IKKε.
Where [3] appears, read: HEK293T cells in culture, Table 3, read-out: pIRF3 ELISA IC50.
Where [4] appears, read: HEK293T cells, 20 hours, text bins, read-out: IC50 for inhibition of the in-situ IKKε-mediated phosphorylation of IRF3.
The mark [5] stands for this setting: text bins, read-out: IC50 for inhibition of the kinase activity of TBK1.

For `N#Cc1cc(-c2ccnc(Nc3cccc(CN4CCN(CCO)CC4)c3)n2)ccc1OC1CCOCC1` [compound 625, 5-{2-[(3-{[4-(2-Hydroxyethyl)piperazin-1-yl]methyl}phenyl)amino]pyrimidin-4-yl}-2-(tetrahydro-2H-pyran-4-yloxy)benzonitrile], the IC50 is 2 nM on IKKε (Table 3, read-out: IKKε IC50); less than 5 nM at IKKε (setting [2]); 16.9 nM in test [1] (setting [3]); less than 100 nM in test [1] (setting [4]); 0.4 nM on TBK1 (Table 3, read-out: TBK1 IC50); less than 10 nM at TBK1 (setting [5]).

As to `COc1cc(Nc2nccc(-c3ccc(OC4CCOCC4)c(C#N)c3)n2)ccc1OCCOCCNS(C)(=O)=O` [Example 22], the figures for the IC50 (on IKKε (setting [2]); in test [1] (setting [4]); on TBK1 (setting [5])) were less than 5 nM, less than 100 nM and less than 10 nM, respectively.

For the compound `N#Cc1cc(-c2ccnc(Nc3ccc(N4CCOCC4)cc3)n2)ccc1OCC1CC1` [compound 438, 2-(cyclopropylmethoxy)-5-(2-{[4-(morpholin-4-yl)phenyl]amino}pyrimidin-4-yl)benzonitrile], the IC50 at IKKε (setting [2]) was less than 5 nM; in test [1] (setting [4]) it was less than 100 nM; at TBK1 (setting [5]), less than 10 nM.

Consider `COc1cc(Nc2nccc(-c3ccc(OC4CCOCC4)c(C#N)c3)n2)ccc1N1CCOCC1` [Example 73, 5-(2-{[3-methoxy-4-(morpholin-4-yl)phenyl]amino}pyrimidin-4-yl)-2-(tetrahydro-2H-pyran-4-yloxy)benzonitrile], for which the IC50 on IKKε (setting [2]) is less than 5 nM; in test [1] (setting [4]), less than 100 nM; at TBK1 (setting [5]), less than 10 nM.

Consider `COc1cc(Nc2nccc(-c3ccc(OC4CCOCC4)c(C#N)c3)n2)ccc1CN1CC(OC)C1` [compound 482, 5-[2-({3-Methoxy-4-[(3-methoxyazetidin-1-yl)methyl]phenyl}amino)pyrimidin-4-yl]-2-(tetrahydro-2H-pyran-4-yloxy)benzonitrile], for which the IC50 at IKKε (setting [2]) was less than 5 nM; in test [1] (setting [4]) it was less than 100 nM; at TBK1 (setting [5]) it was less than 10 nM.

Regarding `N#Cc1cc(-c2ccnc(Nc3ccc(N4CCN(CCO)CC4)cc3)n2)ccc1OCC1CC1` [compound 439, 2-(Cyclopropylmethoxy)-5-[2-({4-[4-(2-hydroxyethyl)piperazin-1-yl]phenyl}amino)pyrimidin-4-yl]benzonitrile], the half-maximal inhibitory concentration (IC50) is 0.4 nM at IKKε (Table 3, read-out: IKKε IC50); less than 5 nM at IKKε (setting [2]); 8 nM in test [1] (setting [3]); less than 100 nM in test [1] (setting [4]); 0.3 nM on TBK1 (Table 3, read-out: TBK1 IC50); less than 10 nM at TBK1 (setting [5]).

With `CN(C)CCNS(=O)(=O)c1ccc(Nc2nccc(-c3ccc(OC4CCOCC4)c(C#N)c3)n2)cc1` [compound 334, 4-({4-[3-cyano-4-(tetrahydro-2H-pyran-4-yloxy)phenyl]pyrimidin-2-yl}amino)-N-[2-(dimethylamino)ethyl] benzenesulfonamide], the half-inhibitory concentration (IC50) at IKKε (setting [2]) was less than 5 nM; in test [1] (setting [4]) it was 100 to 250 nM; at TBK1 (setting [5]), less than 10 nM.

As for `N#Cc1cc(-c2ccnc(Nc3ccc(CS(=O)(=O)N4CCN(CCO)CC4)cc3)n2)ccc1OC1CCOCC1` [compound 406, 5-(2-{[4-({[4-(2-Hydroxyethyl)piperazin-1-yl]sulfonyl}methyl)phenyl]amino}pyrimidin-4-yl)-2-(tetrahydro-2H-pyran-4-yloxy)benzonitrile], the IC50 at IKKε (setting [2]) is less than 5 nM; in test [1] (setting [4]) it was less than 100 nM; at TBK1 (setting [5]) it was less than 10 nM.

In the case of `COc1cc(Nc2nccc(-c3ccc(OC4CCOCC4)c(C#N)c3)n2)ccc1CO` [compound 498, 5-(2-{[4-(hydroxymethyl)-3-methoxyphenyl]amino}pyrimidin-4-yl)-2-(tetrahydro-2H-pyran-4-yloxy)benzonitrile], the values for the concentration for half-maximal inhibition (IC50) (on IKKε (setting [2]); in test [1] (setting [4]); on TBK1 (setting [5])) were less than 5 nM, less than 100 nM and less than 10 nM, respectively.

On to `CC1(COc2ccc(-c3ccnc(Nc4ccc(N5CCN(CCO)CC5)cc4)n3)cc2C#N)COC1` [compound 437, 5-[2-({4-[4-(2-Hydroxyethyl)piperazin-1-yl]phenyl}amino)pyrimidin-4-yl]-2-[(3-methyloxetan-3-yl)methoxy] benzonitrile], for which the IC50 on IKKε (setting [2]) is less than 5 nM; in test [1] (setting [4]), 100 to 250 nM; at TBK1 (setting [5]), less than 10 nM.

With `COc1ccc(Nc2nccc(-c3ccc(OC4CCOCC4)c(C#N)c3)n2)cc1OCCCC1CCN(C(C)C)CC1` [compound 520, 5-{2-[(4-medthoxy-3-{3-[1-(propan-2-yl)piperidin-4-yl]propoxy}phenyl)amino]pyrimidin-4-yl}-2-(tetrahydro-2H-pyran-4-yloxy)benzonitrile], the values for the IC50 (at IKKε (setting [2]); in test [1] (setting [4]); on TBK1 (setting [5])) were less than 5 nM, less than 100 nM and less than 10 nM, respectively.

Regarding `COc1cc(Nc2nccc(-c3ccc(OC4CCOCC4)c(C#N)c3)n2)ccc1OCCN` [Example 30, 5-(2-{[4-(2-aminoethoxy)-3-methoxyphenyl]amino}pyrimidin-4-yl)-2-(tetrahydro-2H-pyran-4-yloxy)benzonitrile], the figures for the IC50 (at IKKε (setting [2]); in test [1] (setting [4]); on TBK1 (setting [5])) were less than 5 nM, 250 to 500 nM and less than 10 nM, respectively.

As for `CN(C)C(=O)Nc1cccc(Nc2nccc(-c3ccc(OC4CCOCC4)c(C#N)c3)n2)c1` [compound 631, 3-[3-({4-[3-Cyano-4-(tetrahydro-2H-pyran-4-yloxy)phenyl]pyrimidin-2-yl}amino)phenyl]-1,1-dimethylurea], the IC50 at IKKε (Table 3, read-out: IKKε IC50) is 0.8 nM; at IKKε (setting [2]), less than 5 nM; in test [1] (setting [3]), 31.9 nM; in test [1] (setting [4]) it was less than 100 nM; on TBK1 (Table 3, read-out: TBK1 IC50) it was 1.3 nM; on TBK1 (setting [5]), less than 10 nM.

In the case of `CS(=O)(=O)NCc1ccc(Nc2nccc(-c3ccc(OC4CCOCC4)c(C#N)c3)n2)cc1` [compound 493, N-[4-({4-[3-cyano-4-(tetrahydro-2H-pyran-4-yloxy)phenyl]pyrimidin-2-yl}amino)benzyl] methanesulfonamide], the half-inhibitory concentration (IC50) is less than 5 nM on IKKε (setting [2]), less than 100 nM in test [1] (setting [4]) and less than 10 nM at TBK1 (setting [5]).

`COc1cc(Nc2nccc(-c3ccc(OC4CCOCC4)c(C#N)c3)n2)ccc1C(=O)NC1CCN(C)CC1` [compound 381, 4-({4-[3-cyano-4-(tetrahydro-2H-pyran-4-yloxy)phenyl]pyrimidin-2-yl}amino)-2-methoxy-N-(1-methylpiperidin-4-yl)benzamide]: the 50% inhibitory concentration (IC50) was 0.6 nM on IKKε (Table 3, read-out: IKKε IC50); less than 5 nM at IKKε (setting [2]); 349 nM in test [1] (setting [3]); 250 to 500 nM in test [1] (setting [4]); 0.4 nM on TBK1 (Table 3, read-out: TBK1 IC50); less than 10 nM on TBK1 (setting [5]).

For the compound `COc1ccc(Nc2nccc(-c3ccc(OC4CCOCC4)c(C#N)c3)n2)cc1OCCCN1CCN(C(=O)C(C)C)CC1` [compound 524, 5-{2-[(4-methoxy-3-{3-[4-(2-methylpropanoyl)piperazin-1-yl]propoxy}phenyl)amino]pyrimidin-4-yl}-2-(tetrahydro-2H-pyran-4-yloxy)benzonitrile], the IC50 on IKKε (setting [2]) is less than 5 nM; in test [1] (setting [4]), 100 to 250 nM; at TBK1 (setting [5]), less than 10 nM.
